Measured values taken from the NIST ThermoML archive (doi:10.1016/j.fluid.2011.01.001).

How the values were obtained:
[1] = 101.33 kPa, Liquid, Vibrating tube method
[2] = refractive index (Na D-line) (dimensionless); settings: 101.33 kPa, Liquid, Standard Abbe refractometry
[3] = mn = molality of the nth substance listed, in mol/kg; settings: 101 kPa, Liquid, Vibrating tube method

CCn1cc[n+](C)c1.COS(=O)(=O)[O-] [1-ethyl-3-methylimidazolium methylsulfate]
Settings | mass density, 298.15 K [kg/m3] | mass density, 308.15 K [kg/m3] | mass density, 318.15 K [kg/m3] | mass density, 328.15 K [kg/m3] | refractive index, 298.15 K | refractive index, 308.15 K | refractive index, 318.15 K | refractive index, 328.15 K
[1] | 1361.2 | 1333.2 | 1319.2 | 1300.3 | – | – | – | –
[2] | – | – | – | – | 1.4822 | 1.4782 | 1.4759 | 1.4704

CCn1cc[n+](C)c1.COS(=O)(=O)[O-] [1-ethyl-3-methylimidazolium methylsulfate] + O
mass density [kg/m3], [3]
Settings | 298.15 K | 308.15 K | 318.15 K | 328.15 K
m1 = 0.0166 | 998.28 | 995.1 | 991.05 | 985.78
m1 = 0.0244 | 998.78 | 995.59 | 991.42 | 986.12
m1 = 0.0302 | 999.18 | 995.94 | 991.68 | 986.36
m1 = 0.0372 | 999.58 | 996.31 | 992 | 986.62
m1 = 0.0702 | 1001.29 | 997.81 | 993.46 | 987.97
m1 = 0.077 | 1001.59 | 998.05 | 993.68 | 988.23
m1 = 0.0961 | 1002.25 | 998.74 | 994.43 | 988.9
m1 = 0.1191 | 1003.09 | 999.51 | 995.31 | 989.75
m1 = 0.1346 | 1003.69 | 999.99 | 995.93 | 990.36
m1 = 0.1823 | 1005.3 | 1002.08 | 997.93 | 992.14
m1 = 0.3343 | 1011.4 | 1008.04 | 1003.88 | 997.71
m1 = 0.4226 | 1014.99 | 1011.67 | 1007.18 | 1000.86
m1 = 0.5486 | 1020.29 | 1017.02 | 1011.85 | 1005.32
m1 = 0.573 | 998.28 | 1018.1 | 1012.71 | 1006.1

CCCCCCn1cc[n+](C)c1.CCOS(=O)(=O)[O-] [1-hexyl-3-methylimidazolium ethyl sulfate]
Settings | mass density, 298.15 K [kg/m3] | mass density, 308.15 K [kg/m3] | mass density, 318.15 K [kg/m3] | mass density, 328.15 K [kg/m3] | refractive index, 298.15 K | refractive index, 308.15 K | refractive index, 318.15 K | refractive index, 328.15 K
[1] | 1137.54 | 1130.74 | 1124.29 | 1117.81 | – | – | – | –
[2] | – | – | – | – | 1.4677 | 1.4636 | 1.4596 | 1.4566

CCCCCCn1cc[n+](C)c1.CCOS(=O)(=O)[O-] [1-hexyl-3-methylimidazolium ethyl sulfate] + O
mass density [kg/m3], [3]
Settings | 298.15 K | 308.15 K | 318.15 K | 328.15 K
m1 = 0.0113 | 997.55 | 994.52 | 990.63 | 985.41
m1 = 0.0347 | 998.58 | 995.5 | 991.48 | 986.2
m1 = 0.0419 | 998.9 | 995.8 | 991.73 | 986.44
m1 = 0.0614 | 999.73 | 996.6 | 992.41 | 987.07
m1 = 0.0677 | 1000 | 996.84 | 992.62 | 987.28
m1 = 0.1085 | 1001.65 | 998.38 | 994 | 988.57
m1 = 0.2177 | 1005.67 | 1002.07 | 997.31 | 991.8
m1 = 0.3501 | 1010 | 1005.78 | 1000.86 | 995.29
m1 = 0.433 | 1012.3 | 1007.9 | 1002.92 | 997.21
m1 = 0.5618 | 1015.56 | 1010.89 | 1005.91 | 1000.07
m1 = 0.7474 | 1019.59 | 1014.5 | 1009.79 | 1003.7
m1 = 0.8741 | 1021.74 | 1016.59 | 1012.03 | 1005.94
m1 = 1.17 | 1025.65 | 1020.79 | 1016.28 | 1010.91
m1 = 1.343 | 1027.8 | 1023.36 | 1018.31 | 1013.65

CCCCCCn1cc[n+](C)c1.COS(=O)(=O)[O-] [1-hexyl-3-methylimidazolium methyl sulfate]
Settings | mass density, 298.15 K [kg/m3] | mass density, 308.15 K [kg/m3] | mass density, 318.15 K [kg/m3] | mass density, 328.15 K [kg/m3] | refractive index, 298.15 K | refractive index, 308.15 K | refractive index, 318.15 K | refractive index, 328.15 K
[1] | 1156.93 | 1150.32 | 1143.84 | 1137.38 | – | – | – | –
[2] | – | – | – | – | 1.4733 | 1.4708 | 1.4683 | 1.4654

CCCCCCn1cc[n+](C)c1.COS(=O)(=O)[O-] [1-hexyl-3-methylimidazolium methyl sulfate] + O
mass density [kg/m3], [3]
Settings | 298.15 K | 308.15 K | 318.15 K | 328.15 K
m1 = 0.0118 | 997.55 | 994.47 | 990.58 | 985.32
m1 = 0.0314 | 998.37 | 995.17 | 991.17 | 985.78
m1 = 0.0497 | 999.1 | 995.8 | 991.69 | 986.21
m1 = 0.076 | 1000.09 | 996.65 | 992.4 | 986.8
m1 = 0.0937 | 1000.68 | 997.19 | 992.86 | 987.21
m1 = 0.154 | 1002.59 | 998.9 | 994.35 | 988.41
m1 = 0.3076 | 1006.3 | 1002.6 | 997.53 | 990.95
m1 = 0.5023 | 1010.81 | 1006.62 | 1001.55 | 994.25
m1 = 0.6255 | 1013.9 | 1009.13 | 1003.9 | 996.3
m1 = 0.7024 | 1015.42 | 1010.54 | 1005.28 | 997.49
m1 = 0.8838 | 1020.02 | 1014 | 1008.57 | 1000.18
m1 = 1.071 | 1024.02 | 1017.44 | 1012.23 | 1002.98
m1 = 1.284 | 1028.91 | 1021.24 | 1015.5 | 1005.89
m1 = 1.544 | 1034.22 | 1026.15 | 1020.01 | 1009
